A word on the mortality: it is the share of the test organisms that died.

What all share (type): in vivo
The subject of one experiment is Plutella xylostella. Description: Plutella xylostella killing test. The conditions noted are these: 144 h, active ingredient 500 ppm, dipped cabbage leaf, second instar larvae, after 6 days, 25° C., read-out: insect mortality. The protocol:
(§1) The water-dispersible powder prepared in accordance with Formulation example 2 was diluted in water so that the concentration of the active ingredient was 500 ppm. A cabbage leaf was dipped in this liquid agent, and air-dried, and then put into a plastic cup. Ten second instar larvae of Plutella xylostella were released in the cup, and the cup was lidded. Then, the cup was placed in a thermostatic chamber at 25° C., and the number of dead insects was examined after 6 days, and the insect mortality was determined by the calculation formula of numerical formula 1. The test was conducted singly.

A further experiment deals with Helicoverpa armigera. The experiment in a line: Helicoverpa armigera killing test. The note with it: 144 h, active ingredient 500 ppm, dipped cabbage leaf, newly hatched larvae, after 6 days, 25° C., read-out: insect mortality. The protocol: as §1, with “Five newly hatched” for “Ten second instar”, “Helicoverpa armigera” for “Plutella xylostella”, “in duplicate.” for “singly.”

The next experiment relates to Aphis gossypii. Description: Aphis gossypii killing test. The conditions noted are these: read-out: insect mortality. The protocol:
The water-dispersible powder prepared in accordance with Formulation example 2 was diluted in water so that the concentration of the active ingredient was 500 ppm. A nursery plant of cucumber preliminarily inoculated with nymphs of Aphis gossypii was dipped in this liquid agent, and air-dried. The nursery plant of cucumber after the treatment was placed in a thermostatic chamber at 25° C., and the number of live insects was counted after 3 days, and the insect mortality was determined by the calculation formula of numerical formula 1. The test was conducted singly.

For the next experiment, the system named is Nilaparvata lugens. The experiment in a line: Nilaparvata lugens killing activity test. The note with it: 144 h, active ingredient 500 ppm, dipped paddy, second instar larvae, after 6 days, 25° C., read-out: insect mortality. The method, then:
The water-dispersible powder prepared in accordance with Formulation example 2 was diluted in water so that the concentration of the active ingredient was 500 ppm. Paddy was dipped in this liquid agent, and then put into a plastic cup. Ten second instar larvae of Nilaparvata lugens were released in the plastic cup, and the cup was lidded, and placed in a thermostatic chamber at 25° C. After 6 days, the number of live insects was counted, and the insect mortality was determined by the calculation formula of numerical formula 1. The test was conducted singly.

Setting [1] is: active ingredient 500 ppm, dipped cucumber nursery plant inoculated with nymphs, after 3 days, 25° C.

Like-named read-outs stand apart in the source and are kept apart here.

Take `Cc1ccccc1-c1cn(-c2cccnc2)nc1C(N)=O` [A-0020, 1-(pyridine-3-yl)-4-(2-methylphenyl)-1H-pyrazole-3-carboxamide]: the mortality at 500 ppm with Plutella xylostella, with Helicoverpa armigera, in the experiment on Aphis gossypii (setting [1]) and in the experiment with Nilaparvata lugens was at least 50% throughout.
With `NC(=O)c1nn(-c2cccnc2)cc1-c1ccccc1C(F)(F)F` [A-0044, 1-(pyridine-3-yl)-4-[2-(trifluoromethyl)phenyl]-1H-pyrazole-3-carboxamide], the mortality at 500 ppm in the experiment on Aphis gossypii (setting [1]) was at least 50%.
Take `COc1cc(Cl)ccc1-c1cn(-c2cccnc2)nc1C(N)=O` [A-0634, 4-(4-chloro-2-methoxyphenyl)-1-(pyridine-3-yl)-1H-pyrazole-3-carboxamide]: the mortality at 500 ppm in the experiment with Plutella xylostella, in the experiment with Helicoverpa armigera, in the experiment on Aphis gossypii (setting [1]) and in the experiment with Nilaparvata lugens was at least 50% throughout.
As to `COCC(=O)NC(=O)c1nn(-c2cccnc2)cc1-c1ccccc1C` [A-4808, N-(2-methoxyacetyl)-1-(pyridine-3-yl)-4-(2-methylphenyl)-1H-pyrazole-3-carboxamide], the mortality at 500 ppm in the experiment on Aphis gossypii (setting [1]) and with Nilaparvata lugens was at least 50% in each case.
As for `Cc1ccccc1-c1cn(-c2cccnc2)nc1C(N)=S` [A-8646, 1-(pyridine-3-yl)-4-(2-methylphenyl)-1H-pyrazole-3-carbothioamide], the mortality at 500 ppm in the experiment on Plutella xylostella and in the experiment with Nilaparvata lugens was at least 50% each time.
With `Cc1ccccc1-c1cn(-c2ccc[n+]([O-])c2)nc1C(N)=O` [A-8862, 3-[3-carbamoyl-4-(2-methylphenyl)-1H-pyrazole-1-yl]pyridine-1-oxide], the mortality at 500 ppm with Aphis gossypii (setting [1]) and in the experiment with Nilaparvata lugens was at least 50% each time.
As for `Cc1cccnc1-c1cn(-c2cccnc2)nc1C(N)=O` [B-0027, 4-(3-methylpyridine-2-yl)-1-(pyridine-3-yl)-1H-pyrazole-3-carboxamide], the mortality at 500 ppm in the experiment with Plutella xylostella, in the experiment on Helicoverpa armigera, in the experiment on Aphis gossypii (setting [1]) and with Nilaparvata lugens was at least 50% each time.
For `Cc1ccncc1-c1cn(-c2cccnc2)nc1C(N)=O` [B-0100, 4-(4-methylpyridine-3-yl)-1-(pyridine-3-yl)-1H-pyrazole-3-carboxamide], the mortality at 500 ppm in the experiment with Plutella xylostella, with Helicoverpa armigera and in the experiment with Nilaparvata lugens was at least 50% in each case.
Regarding `CCOC(=O)c1nn(-c2cccnc2)cc1-c1ccccc1C(F)(F)F` [C-0044, Ethyl 1-(pyridine-3-yl)-4-(2-(trifluoromethyl)phenyl)-1H-pyrazole-3-carboxylate], the mortality at 500 ppm in the experiment with Aphis gossypii (setting [1]) and in the experiment with Nilaparvata lugens was at least 50% throughout.
Consider `CCOC(=O)c1nn(-c2cccnc2)cc1-c1ccc(Cl)cc1OC` [C-0634, Ethyl 4-(4-chloro-2-methoxyphenyl)-1-(pyridine-3-yl)-1H-pyrazole-3-carboxylate], for which the mortality at 500 ppm in the experiment on Plutella xylostella was at least 50%.
Take `CCOC(=O)c1nn(-c2cccnc2)cc1I` [D-0003, ethyl 4-iodo-1-(pyridine-3-yl)-1H-pyrazole-3-carboxylate]: the mortality at 500 ppm in the experiment with Helicoverpa armigera and in the experiment on Aphis gossypii (setting [1]) was at least 50% each time.
Regarding `CCOC(=O)c1nn(-c2cccnc2)cc1OS(=O)(=O)C(F)(F)C(F)(F)C(F)(F)C(F)(F)F` [D-0008, Ethyl 4-{[(nonafluorobutyl)sulfonyl]oxy}-1-(pyridine-3-yl)-1H-pyrazole-3-carboxylate], the mortality at 500 ppm in the experiment with Aphis gossypii (in Cucumis sativus) is at least 50%.
`CCOC(=O)c1nn(-c2cccnc2)cc1-c1ncccc1C` [D-0035, Ethyl 4-(3-methylpyridine-2-yl)-1-(pyridine-3-yl)-1H-pyrazole-3-carboxylate]: the mortality at 500 ppm in the experiment on Plutella xylostella, in the experiment on Helicoverpa armigera, with Aphis gossypii (setting [1]) and in the experiment on Nilaparvata lugens was at least 50% in each case.
`CCOC(=O)c1nn(-c2cccnc2)cc1-c1cnccc1C` [D-0108, Ethyl 4-(4-methylpyridine-3-yl)-1-(pyridine-3-yl)-1H-pyrazole-3-carboxylate]: the mortality at 500 ppm in the experiment with Plutella xylostella, in the experiment with Helicoverpa armigera and in the experiment with Aphis gossypii (setting [1]) was at least 50% throughout.
Regarding `Cc1ccncc1-c1cn(-c2cccnc2)nc1C(=O)O` [F-0108, 4-(4-methylpyridine-3-yl)-1-(pyridine-3-yl)-1H-pyrazole-3-carboxylic acid], the mortality at 500 ppm in the experiment on Plutella xylostella and in the experiment on Helicoverpa armigera was at least 50% in each case.
